Here are results for 25 molecules from patent publication US8673849B2, “Lactadherin-derived peptides as antiviral agents” (priority 2010, dated 2014).

Where a SMILES comes first, the peptide text is derived from it. Where no end group is shown, it is not given here. Where only a bound is given, the exact number is not on record here.

The target in data set [1] is integrin proteins on the cell surface.
Data set [2] relates to human rotavirus strain Wa. The data set is classed as cell-based. Particulars: for anti-rotavirus activity (in words): statement on Table 6. On the procedure: To cultivate the rotavirus, the cell line MA-104 (monkey foetal kidney cells), obtained from the Cell Substrata Centre of the Experimental Animal Disease Institute, Brescia, Italy, was used. This cell line is cultured as a monolayer in EAGLE minimum essential medium (MEM) containing 5% heat-inactivated (56° C. for 30 minutes) bovine foetal serum (Sigma) and is maintained at 37° C. at 5% CO2.
For the in vitro infection assay, the cell line MA-104 and the human rotavirus strain Wa (TC adapted), obtained from the American Type Culture Collection (ATCC VR-2018) and propagated in MA-104 cells, were used.
To set up the assay, cells were seeded in 96-well plates and, once 80% confluence was achieved, were pre-treated for 1 hour with increasing concentrations of RGD- and/or DGE-containing peptides or their mutated counterparts and incubated at 37° C. The peptides containing the RGD or the DGE motif were used either alone or in combination. Cells were then washed with medium and infected with the pre-activated virus (5 μg/ml tripsin for 30 minutes at 37° C.) in the presence of the peptides. After a 1 hour incubation cells were washed with medium and incubated in medium containing 0.5 μg/ml tripsin and the peptides at 37° C. for 20 hours. The infected cells were visualised through an immunoperoxidase assay, using murine monoclonal antibodies specific for the capsidic protein VP6 of the rotavirus (Abcam) and the kit “UltraTech HRP Streptavidin-Biotin detection system” (Beckman Coulter). The infected cells were counted by observation under the optical microscope and the percentage of infection calculated by comparison of treated with non-treated cells.

Data set [3] concerns simian rotavirus strain SA11. The settings on record: MA104 cells, dose-dependent; Graham et al.; cited from earlier work.
Data set [4] addresses T1, modified porcine trypsin (Sus scrofa, UniProt P00761).
T1 construct: purchased Promega
The data set is classed as in vitro ADME. On the procedure:
The peptide SEQ ID NO: 1 was dissolved in ultra pure H2O to obtain a final concentration of 10 mg/ml. Dilutions from 1:10 to 1:10,000 were obtained. All concentrations were tested by MALDI-TOF analyses. 0.5 μl of samples from dilutions 1:10, 1:100, 1:1,000, 1:10,000 were spotted onto a MALDI target plate and left to dry at RT. 0.5 μl of α-cyano-4-hydroxy-cinnamic acid in 30% acetonitrile, 0.1% TFA (HCCA matrix solution) were added to each sample and left to dry under vacuum. Spectra were obtained using a Bruker Ultraflex II MALDI-TOF/TOF mass spectrometer (Bruker Daltonics) in reflectron and positive ion mode. External calibration was performed using “Peptide calibration standard” from Bruker Daltonics.
To evaluate the digestibility of the SEQ ID NO: 1 peptide with trypsin, […] of a 0.2 μg/μl solution (25 mM NH4HCO3) of modified porcine trypsin (Promega) were added to 150 μl of the 10 mg/ml peptide solution ((25 mM NH4HCO3) enzyme to protein ratio 1:100). The sample was incubated at 37° C. and 0.5 μl were collected at different time of digestion: 5′, 15′, 30′, 60′ 90′ 120′. Each samples was spotted on MALDI target and spectra were collected as already described in Example 4a. In FIG. 5 the time course experiment evaluated by MALDI TOF analyses is shown.

In data set [5] the target is integrin proteins on the cell surface. The source holds these as a separate data set.
Data set [6] shares this target. This is another data set of the same source.
Data set [7] has as its system rotavirus. The settings on record: purified lactadherin; Kvistgaard et al., 2004; cited from earlier work.
For data set [8], the target named is integrin proteins on the cell surface. The source holds these as a separate data set.
The target is the same in data set [9]. This is another data set of the same source.

A word on the IC50: it is the midpoint of a concentration-inhibition curve.

T1 sequence (P00761 9-231): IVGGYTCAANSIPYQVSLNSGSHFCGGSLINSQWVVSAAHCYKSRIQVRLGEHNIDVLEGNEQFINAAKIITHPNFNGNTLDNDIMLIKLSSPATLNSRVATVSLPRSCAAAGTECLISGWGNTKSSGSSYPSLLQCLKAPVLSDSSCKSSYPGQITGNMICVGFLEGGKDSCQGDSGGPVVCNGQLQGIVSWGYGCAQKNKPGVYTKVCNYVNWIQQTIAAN

In [1], Control peptide D-G-E-A (Graham et al.) had an IC50 (µM), inhibition of human rotavirus Wa infection of MA-104 cells of 311 µM and an IC50 (µg/ml), inhibition of human rotavirus Wa infection of MA-104 cells of 121 µg/mL.
With “SHRGDVFT [SEQ ID NO: 5, S-H-R-G-D-V-F-T]”, in data set [2], the IC50 was found to be 111 µM and the “IC50 (μg/ml)” value was 101.5 µg/mL.
In [1], “pRGE: S-H-R-G-E-V-F-T (RGD -> RGE mutation) (peptide)” gave an IC50 (µM), inhibition of human rotavirus Wa infection of MA-104 cells of 600 µM and an IC50 (µg/ml), inhibition of human rotavirus Wa infection of MA-104 cells of 558 µg/mL.
Regarding NNDGECHVIDDSHRGDVFTQ [SEQ ID NO: 7], in data set [2], the IC50 stood at 13.5 µM, the “IC50 (μg/ml)” value worked out at 30.51 µg/mL and the “anti-rotavirus activity (in words)” value is on record as “show antiviral activity”.
For the molecule “pAGE: Q-N-A-G-E-C-H-V (DGE -> AGE mutation) (peptide)”, in data set [1], the IC50 (µM), inhibition of human rotavirus Wa infection of MA-104 cells was determined as 257 µM and the IC50 (µg/ml), inhibition of human rotavirus Wa infection of MA-104 cells is 220 µg/mL.
Consider `C[C@H](NC(=O)[C@H](CCC(=O)O)NC(=O)CNC(=O)[C@@H](N)CC(=O)O)C(=O)O` [DGEA, D-G-E-A, reference compound] (H-DGEA-OH; N-terminus and C-terminus assumed), for which, in [2], the IC50 was determined as 311 µM and the “IC50 (μg/ml)” value turned out to be 121.4 µg/mL. In addition, the “inhibition of rotavirus binding to and infection of cells (in words)” value in data set [3] is “inhibit”.
Turning to “QNDGECHVIDDSHRGDVFTQ [SEQ ID NO: 1, QNDGECHVIDDSHRGDVFTQ]”, in data set [2], the IC50 is 1.72 µM and the “IC50 (μg/ml)” value turned out to be 3.9 µg/mL. Moreover, in data set [4], the “integrity of the peptide on trypsin digestion” value was “didn't affect the integrity”.
For QNDGECHVIDDSHRGDVFQT [SEQ ID NO: 9], in [2], the IC50 is 4.17 µM, the “IC50 (μg/ml)” value stood at 9.469 µg/mL and the “anti-rotavirus activity (in words)” value is “show antiviral activity”.
Turning to “QNDGECHV [SEQ ID NO: 3, Q-N-D-G-E-C-H-V]”, in [2], the IC50 amounted to 17.3 µM and the “IC50 (μg/ml)” value was determined as 15.6 µg/mL.
In the case of QNDGECHVIDDSDRGDVFTQ [SEQ ID NO: 11], in data set [2], the IC50 worked out at 10.5 µM, the “IC50 (μg/ml)” value amounted to 23.90 µg/mL and the “anti-rotavirus activity (in words)” value was “maintains its anti-rotavirus activity”.
For the molecule “EVRGDVFP [Hu-RGD, E-V-R-G-D-V-F-P, reference compound]”, in [2], the IC50 came out at 104 µM and the “IC50 (μg/ml)” value was found to be 95.3 µg/mL.
As for “SHRGDVFI [Bo-RGD, S-H-R-G-D-V-F-I, reference compound]”, in data set [2], the IC50 amounted to 395 µM and the “IC50 (μg/ml)” value was 367.1 µg/mL.
On to “Dendrimeric peptide of formula (VII): [[(HRGDVFT)2-Lys][(NDGECHV)2-Lys]]-Lys-β-Ala-NH2”, for which the IC50, inhibition of rotavirus infection, infected cells counted by immunoperoxidase in data set [5] came to 3.6 µM.
As to “QNAGECHV [pAGE, Q-N-A-G-E-C-H-V, reference compound]”, in [2], the IC50 was 257 µM and the “IC50 (μg/ml)” value was found to be 219.6 µg/mL.
The like results for “SHRGEVFT [pRGE, S-H-R-G-E-V-F-T, reference compound]” were, in that order, 600 µM and 558.5 µg/mL.
As for QNDGECHVIDDSHRGDVFSQ [SEQ ID NO: 8], in [2], the IC50 was 6.35 µM, the “IC50 (μg/ml)” value came out at 14.43 µg/mL and the “anti-rotavirus activity (in words)” value was “show antiviral activity”.
In the same order, the values of QNAGECHVIDDSHRGEVFTQ [SEQ ID NO: 10] are above 220 µM, above 500 µg/mL and “completely lost any anti-rotavirus activity”.
With GPRP, the “inhibition of rotavirus binding to and infection of cells (in words)” value in data set [3] was “inhibit”.
Regarding SHRGDVFT (not fully specified) [peptidic compound of SEQ ID NO: 5 (S-H-R-G-D-V-F-T)], in data set [1], the IC50 (µM), inhibition of human rotavirus Wa infection of MA-104 cells, infected cells counted by immunoperoxidase turned out to be 111 µM and the IC50 (µg/ml), inhibition of human rotavirus Wa infection of MA-104 cells was determined as 102 µg/mL. The % of inhibition of rotavirus infection at 100 µg/ml (93.3 µM), one representative experiment (% of inhibition) in data set [6] came out at 46.9.

B1: bovine lactadherin: bovine lactadherin, glycoprotein of milk fat globule membranes, 427 amino acid residues (protein, UniProt Q95114 19-427, looked up)
Lactadherin: ASGDFCDSSLCLHGGTCLLNEDRTPPFYCLCPEGFTGLLCNETEHGPCFPNPCHNDAECQVTDDSHRGDVFIQYICKCPLGYVGIHCETTCTSPLGMQTGAIADSQISASSMHLGFMGLQRWAPELARLHQTGIVNAWTSGNYDKNPWIQVNLMRKMWVTGVVTQGASRAGSAEYLKTFKVAYSTDGRQFQFIQVAGRSGDKIFIGNVNNSGLKINLFDTPLETQYVRLVPIICHRGCTLRFELLGCELNGCTEPLGLKDNTIPNKQITASSYYKTWGLSAFSWFPYYARLDNQGKFNAWTAQTNSASEWLQIDLGSQKRVTGIITQGARDFGHIQYVAAYRVAYGDDGVTWTEYKDPGASESKIFPGNMDNNSHKKNIFETPFQARFVRIQPVAWHNRITLRVELLGC
As for B1, in [7], the “activity against rotavirus infection (in words)” value is “does not possess this activity”.
In [1], SHRGDVFI (not fully specified) [Bo-RGD: S-H-R-G-D-V-F-I] displayed an IC50 (µM), inhibition of human rotavirus Wa infection of MA-104 cells of 395 µM and an IC50 (µg/ml), inhibition of human rotavirus Wa infection of MA-104 cells of 367 µg/mL.
Turning to QNDGECHVIDDSHRGDVFTQ (not fully specified) [peptidic compound of SEQ ID NO: 1 (QNDGECHVIDDSHRGDVFTQ)], in data set [1], the IC50 (µM), inhibition of human rotavirus Wa infection of MA-104 cells stood at 1.72 µM and the IC50 (µg/ml), inhibition of human rotavirus Wa infection of MA-104 cells came to 3.9 µg/mL. The molecule further showed a % of inhibition of rotavirus infection at 100 µg/ml (36.6 µM), one representative experiment (% of inhibition) in [8] of 61.
With QNDGECHV (not fully specified) [peptidic compound of SEQ ID NO: 3 (Q-N-D-G-E-C-H-V)], in data set [1], the IC50 (µM), inhibition of human rotavirus Wa infection of MA-104 cells turned out to be 17.3 µM and the IC50 (µg/ml), inhibition of human rotavirus Wa infection of MA-104 cells came out at 15.6 µg/mL. Further, the % of inhibition of rotavirus infection at 100 µg/ml (96.6 µM), one representative experiment (% of inhibition) in data set [9] turned out to be 52.7.
In data set [1], EVRGDVFP (not fully specified) [Hu-RGD: E-V-R-G-D-V-F-P] displayed an IC50 (µM), inhibition of human rotavirus Wa infection of MA-104 cells of 104 µM and an IC50 (µg/ml), inhibition of human rotavirus Wa infection of MA-104 cells of 95.3 µg/mL.

B2: human lactadherin: purified human lactadherin, glycoprotein of milk fat globule membranes, 387 amino acids (protein, UniProt Q08431 24-387, looked up)
Lactadherin: LDICSKNPCHNGGLCEEISQEVRGDVFPSYTCTCLKGYAGNHCETKCVEPLGLENGNIANSQIAASSVRVTFLGLQHWVPELARLNRAGMVNAWTPSSNDDNPWIQVNLLRRMWVTGVVTQGASRLASHEYLKAFKVAYSLNGHEFDFIHDVNKKHKEFVGNWNKNAVHVNLFETPVEAQYVRLYPTSCHTACTLRFELLGCELNGCANPLGLKNNSIPDKQITASSSYKTWGLHLFSWNPSYARLDKQGNFNAWVAGSYGNDQWLQVDLGSSKEVTGIITQGARNFGSVQFVASYKVAYSNDSANWTEYQDPRTGSSKIFPGNWDNHSHKKNLFETPILARYVRILPVAWHNRIALRLELLGC
Take B2: in data set [7], the “activity against rotavirus infection (in words)” value is “active against rotavirus infection”.
